# Tested on: Elongator complex protein 1 (ELP1, also referred to as IKBKAP)
# Test: IKBKAP-HTRF assay (IKBKAP protein in lysates of FD patient-derived fibroblasts)
# Format: cell-based, human
# Conditions: 48 hours incubation, 7-point concentration curve
# Protocol: The assay is used for the quantitative determination of Elongator complex protein 1 (ELP1, also referred to as IKBKAP) concentration in cell lysates using the HTRF® (Homogeneous Time-Resolved Fluorescence) technology. IKBKAP is detected in a sandwich HTRF assay by use of an anti-IKAP antibody labeled with a donor and an anti-IKAP antibody labeled with an acceptor.
# Cells were thawed and incubated in DMEM-10% FBS for 72 hours. Cells were trypsinized, counted, and re-suspended to a concentration of 50,000 cells/mL in DMEM-10% FBS. A 199 μL aliquot of the cell suspensions were plated at 10,000 cells per well in a 96 well microtiter plate and incubated for 3 to 5 hours. […] Test compounds were serially diluted 3.16-fold in 100% DMSO to generate a 7-point concentration curve. A 1 μL aliquot of 200× compound solution was transferred to cell-containing wells, and cells were incubated for 48 hours in a cell culture incubator (37° C., 5% CO2, 100% relative humidity). Triplicate samples were set up for each compound concentration. After 48 hours, the supernatant was removed from the cells and 50 μL of the 1×LB4 lysis buffer, containing protease inhibitors, was added to the cells and incubated with shaking at room temperature for 1 hour. A 36 μL aliquot of this lysate was subsequently transferred to the 384-well plate containing 4 μL of the antibody solution (1:50 dilution of anti IKAP d2 and anti-IKAP K(9+8) in detection buffer). The 384-well plate was then centrifuged for 1 minute to bring the solutions to the bottom of the plate and incubated overnight at 4° C. Fluorescence for each well of the plate at 665 nm and 620 nm was measured was on the EnVision plate reader (Perkin Elmer). The ΔF for each sample is calculated by:
# [formula] wherein Signal is the normalized fluorescence for each sample well and Blank is the average normalized average fluorescence for the Blank control wells.
# The maximum fold increase (MFI) in IKBKAP protein abundance for compounds of Formula (I) or a form thereof relative to the vehicle control are provided in Table 1. MFI was calculated by dividing the ΔF value for each sample well by the sample ΔF for the vehicle control wells.
# The EC2x for IKBKAP protein expression obtained from the 7-point concentration curve generated for each test compound according to the protocol in Biological Example 1 are also provided in Table 1. The term “EC2x for IKBKAP protein expression” is defined as the concentration of test compound that is effective in producing two times the amount of IKBKAP protein in a FD patient cell compared to the amount produced from the DMSO vehicle control.
Compound,MFI (maximum fold increase in IKBKAP protein abundance relative to the vehicle control),EC2x for IKBKAP protein expression (concentration producing two times the amount of IKBKAP protein vs DMSO vehicle control)
"N#Cc1csc2c(NCc3cccs3)cc(Cl)nc12 [Compound 13, 5-chloro-7-{[(thiophen-2-yl)methyl]amino}thieno[3,2-b]pyridine-3-carbonitrile]",***** (>4.9 is indicated by five stars (*****)),–
"Clc1cc(NCc2ccco2)c2scc(Cl)c2n1 [Compound 6, 3,5-dichloro-N-[(furan-2-yl)methyl]thieno[3,2-b]pyridin-7-amine]",***** (>4.9 is indicated by five stars (*****)),*** (between >0.02 μM and ≤0.5 μM is indicated by three stars (***))
"N[C@@H](CCF)Cc1sc2c(NCc3ccco3)cc(Cl)nc2c1Br [Compound 97, 2-[(2S)-2-amino-4-fluorobutyl]-3-bromo-5-chloro-N-[(furan-2-yl)methyl]thieno[3,2-b]pyridin-7-amine]",***** (>4.9 is indicated by five stars (*****)),***** (≤0.005 μM is indicated by five stars (*****))
"N[C@H](CF)Cc1sc2c(NCc3cccs3)cc(Cl)nc2c1Br [Compound 63, 2-[(2S)-2-amino-3-fluoropropyl]-3-bromo-5-chloro-N-[(thiophen-2-yl)methyl]thieno[3,2-b]pyridin-7-amine]",** (between >1.9 and ≤2.9 is indicated by two stars (**)),*** (between >0.02 μM and ≤0.5 μM is indicated by three stars (***))
"Cc1c(C[C@@H](N)CF)sc2c(NCc3ccco3)cc(Cl)nc12 [Compound 81, 2-[(2R)-2-amino-3-fluoropropyl]-5-chloro-N-[(furan-2-yl)methyl]-3-methylthieno[3,2-b]pyridin-7-amine]",***** (>4.9 is indicated by five stars (*****)),***** (≤0.005 μM is indicated by five stars (*****))
"N[C@H](Cc1sc2c(NCc3ccco3)cc(Cl)nc2c1Cl)C(=O)O [Compound 121, 3-(3,5-dichloro-7-{[(furan-2-yl)methyl]amino}thieno[3,2-b]pyridin-2-yl)-D-alanine]",**** (between >3.9 and ≤4.9 is indicated by four stars (****)),**** (between >0.005 μM and ≤0.02 μM is indicated by four stars (****))
"Cc1c(CCN)sc2c(NCc3ccco3)cc(Cl)nc12 [Compound 152, 2-(2-aminoethyl)-5-chloro-N-[(furan-2-yl)methyl]-3-methylthieno[3,2-b]pyridin-7-amine]",** (between >1.9 and ≤2.9 is indicated by two stars (**)),*** (between >0.02 μM and ≤0.5 μM is indicated by three stars (***))
"CC[C@H](N)Cc1sc2c(NCc3nccs3)cc(Cl)nc2c1Br [Compound 78, 2-[(2S)-2-aminobutyl]-3-bromo-5-chloro-N-[(1,3-thiazol-2-yl)methyl]thieno[3,2-b]pyridin-7-amine]",***** (>4.9 is indicated by five stars (*****)),***** (≤0.005 μM is indicated by five stars (*****))
"N[C@@H](CF)Cc1sc2c(NCc3ccco3)cc(Cl)nc2c1Br [Compound 46, 2-[(2R)-2-amino-3-fluoropropyl]-3-bromo-5-chloro-N-[(furan-2-yl)methyl]thieno[3,2-b]pyridin-7-amine]",***** (>4.9 is indicated by five stars (*****)),***** (≤0.005 μM is indicated by five stars (*****))
"C#C[C@H](N)Cc1sc2c(NCc3ccco3)cc(Cl)nc2c1C [Compound 123, 2-[(2R)-2-aminobut-3-yn-1-yl]-3-methyl-5-chloro-N-[(furan-2-yl)methyl]thieno[3,2-b]pyridin-7-amine]",***** (>4.9 is indicated by five stars (*****)),***** (≤0.005 μM is indicated by five stars (*****))
"C[C@H](N)Cc1sc2c(NCc3cccs3)cc(C#N)nc2c1Cl [Compound 112, 2-[(2S)-2-aminopropyl]-3-chloro-7-{[(thiophen-2-yl)methyl]amino}thieno[3,2-b]pyridine-5-carbonitrile]",***** (>4.9 is indicated by five stars (*****)),***** (≤0.005 μM is indicated by five stars (*****))
"C=C[C@H](N)Cc1sc2c(NCc3nccs3)cc(Cl)nc2c1Br [Compound 72, 2-[(2R)-2-aminobut-3-en-1-yl]-3-bromo-5-chloro-N-[(1,3-thiazol-2-yl)methyl]thieno[3,2-b]pyridin-7-amine]",***** (>4.9 is indicated by five stars (*****)),***** (≤0.005 μM is indicated by five stars (*****))
"N[C@@H](CCO)Cc1sc2c(NCc3nccs3)cc(Cl)nc2c1Br [Compound 89, (3S)-3-amino-4-(3-bromo-5-chloro-7-{[(1,3-thiazol-2-yl)methyl]amino}thieno[3,2-b]pyridin-2-yl)butan-1-ol]",***** (>4.9 is indicated by five stars (*****)),***** (≤0.005 μM is indicated by five stars (*****))
"Cc1c(C[C@H](C)N)sc2c(NCc3ncc(F)s3)cc(Cl)nc12 [Compound 129, 2-[(2S)-2-aminopropyl]-5-chloro-N-[(5-fluoro-1,3-thiazol-2-yl)methyl]-3-methylthieno[3,2-b]pyridin-7-amine]",***** (>4.9 is indicated by five stars (*****)),**** (between >0.005 μM and ≤0.02 μM is indicated by four stars (****))
"N[C@H](CF)Cc1sc2c(NCc3nccs3)cc(Cl)nc2c1Br [Compound 66, 2-[(2S)-2-amino-3-fluoropropyl]-3-bromo-5-chloro-N-[(1,3-thiazol-2-yl)methyl]thieno[3,2-b]pyridin-7-amine]",* (An MFI≤1.9 is indicated by one star (*)),*** (between >0.02 μM and ≤0.5 μM is indicated by three stars (***))
"Cc1c(C(C)(O)CO)sc2c(NCc3ccco3)cc(Cl)nc12 (centres unmarked) [Compound 147, 2-(5-chloro-7-{[(furan-2-yl)methyl]amino}-3-methylthieno[3,2-b]pyridin-2-yl)propane-1,2-diol]",** (between >1.9 and ≤2.9 is indicated by two stars (**)),*** (between >0.02 μM and ≤0.5 μM is indicated by three stars (***))
"CN[C@H](c1sc2c(NCc3ccco3)cc(Cl)nc2c1C)C(C)C [Compound 32, 5-chloro-N-[(furan-2-yl)methyl]-3-methyl-2-[(1S)-2-methyl-1-(methylamino)propyl]thieno[3,2-b]pyridin-7-amine]",* (An MFI≤1.9 is indicated by one star (*)),* (An EC2x>1 μM is indicated by one star (*))
"Cc1c(C[C@@H](N)CC#N)sc2c(NCc3cccs3)cc(Cl)nc12 [Compound 105, (3S)-3-amino-4-(5-chloro-3-methyl-7-{[(thiophen-2-yl)methyl]amino}thieno[3,2-b]pyridin-2-yl)butanenitrile]",***** (>4.9 is indicated by five stars (*****)),***** (≤0.005 μM is indicated by five stars (*****))

# From patent US12384797B2, “Thioeno[3,2-b] pyridin-7-amine compounds for treating familial dysautonomia” (PTC THERAPEUTICS, INC., priority 2019, dated 2025)
